Measured values from publication PMC10362946 (Diabetes, obesity & metabolism, 2022).

Experiments:
in vivo [1] = experiment: in vivo; design: species or system Crl:CD1(ICR) mice; settings: mouse, sc
in vivo [2] = experiment: in vivo; design: species or system sprague dawley rats; settings: rat, sc; for AUC(0-t) / CL/F / Cmax / Tmax / half-life: female, Sprague Dawley
gubra DIO rats = settings: gubra choice DIO model; cited from earlier work
[3] = both, Crl:CD1(ICR) (CD-1), 625 nmol/kg

Compound	AUC(0-inf) (in vivo [1]; [3]) [µM·h]	CL/F (in vivo [1]; [3]) [mL/min/kg]	Cmax (in vivo [1]; [3]) [nM]	Tmax (in vivo [1]; [3]) [h]	half-life (in vivo [1]; [3]) [h]	T1/2 (elimination half-life) (in vivo [1])	AUC(0-t) (in vivo [2]; 31 nmol/kg) [µM·h]	CL/F (in vivo [2]; 31 nmol/kg) [mL/min/kg]	Cmax (in vivo [2]; 31 nmol/kg) [nM]	Tmax (in vivo [2]; 31 nmol/kg) [h]	half-life (in vivo [2]; 31 nmol/kg) [h]	AUC(0-t) (in vivo [2]; 104 nmol/kg) [µM·h]	CL/F (in vivo [2]; 104 nmol/kg) [mL/min/kg]	Cmax (in vivo [2]; 104 nmol/kg) [nM]	Tmax (in vivo [2]; 104 nmol/kg) [h]	half-life (in vivo [2]; 104 nmol/kg) [h]	T1/2 (in vivo [2]) [h]	cumulative chow intake compared to controls (gubra DIO rats)	decrease of cumulative gubra diet intake compared to controls (gubra DIO rats)
CC[C@H](C)[C@H](NC(=O)[C@H](CC(C)C)NC(=O)[C@H](Cc1c[nH]c2ccccc12)NC(=O)[C@H](CCC(N)=O)NC(=O)[C@@H](NC(=O)[C@H](Cc1ccccc1)NC(=O)[C@H](C)NC(=O)[C@H](CCCCNC(=O)COCCOCCNC(=O)COCCOCCNC(=O)CC[C@H](NC(=O)CCCCCCCCCCCCCCCCCCC(=O)O)C(=O)O)NC(=O)[C@H](CCC(N)=O)NC(=O)[C@H](C)NC(=O)[C@@H](NC(=O)[C@H](CCCCN)NC(=O)[C@H](CC(=O)O)NC(=O)[C@H](CC(C)C)NC(=O)C(C)(C)NC(=O)[C@@H](NC(=O)[C@H](CO)NC(=O)[C@H](Cc1ccc(O)cc1)NC(=O)[C@H](CC(=O)O)NC(=O)[C@H](CO)NC(=O)[C@@H](NC(=O)[C@H](Cc1ccccc1)NC(=O)[C@@H](NC(=O)CNC(=O)[C@H](CCC(=O)O)NC(=O)C(C)(C)NC(=O)[C@@H](N)Cc1ccc(O)cc1)[C@@H](C)O)[C@@H](C)O)[C@@H](C)CC)[C@@H](C)CC)C(C)C)C(=O)N[C@@H](C)C(=O)NCC(=O)NCC(=O)N1CCC[C@H]1C(=O)N[C@@H](CO)C(=O)N[C@@H](CO)C(=O)NCC(=O)N[C@@H](C)C(=O)N1CCC[C@H]1C(=O)N1CCC[C@H]1C(=O)N1CCC[C@H]1C(=O)N[C@@H](CO)C(N)=O [tirzepatide]	71.7	0.145	2540	12	11.9	approximately 12 hr	3.74	0.139	127	12	9.3	10	0.172	310	12	10.3	10.3		
liraglutide (HAEGTFTSDVSSYLEGQAAKEFIAWLVRGRG; chains of the INN, looked up)																		approximately doubled	approximately 60%
